Results reported in patent US8765944B2, “Compounds for the treatment of hepatitis C” (priority 2010, dated 2014).
pEC50: −log10 of the molar value.

What follows are compounds tested on HCV pseudoparticles (assay: HCV pseudoparticle infection assay (luciferase reporter, Huh7 cells)). Conditions: Hepatitis C virus, genotype 1b, Huh-7, 48 h, HCV pseudoparticles (genotype 1b), luciferase activity 2 days after infection.
Assay type: cell-based, HCV (genotype 1b E1 and E2 envelope)

Row | Compound | pEC50
1 | CN(C)CC1(S(=O)(=O)NC(=O)c2ccc(Nc3nc(OCC(F)(F)F)nc(N4CCN(C(=O)OC(C)(C)C)CC4)n3)cc2)CC1 [Example 8028] | 4.75
2 | CN(C)CC1(S(=O)(=O)NC(=O)c2ccc(Nc3nc(OCC(F)(F)F)nc(N4CCN(S(=O)(=O)c5ccccc5Cl)CC4)n3)cc2)CC1 [Example 8033] | 4.44
3 | Cc1ccccc1S(=O)(=O)N1CCN(c2nc(Nc3ccc(C(=O)NS(=O)(=O)C4(CN(C)C)CC4)cc3)nc(OCC(F)(F)F)n2)CC1 [Example 8034] | 4.64

Same assay, conditions: Hepatitis C virus, genotype 1b, Huh-7, 48 h, HCV pseudoparticles (genotype 1b), luciferase activity 2 days after infection, class

Row | Compound | pEC50
4 | CCS(=O)(=O)N1CCN(c2nc(Nc3ccc(C(=O)NS(=O)(=O)C4(CN(C)C)CC4)cc3)nc(OCC(F)(F)F)n2)CC1 [Example 8023] | 5.30 to 6.00
5 | CC(=O)N1CCN(c2nc(Nc3ccc(C(=O)NS(=O)(=O)C4(CN(C)C)CC4)cc3)nc(OCC(F)(F)F)n2)CC1 [Example 8024] | 5.30 to 6.00
6 | CN(C)CC1(S(=O)(=O)NC(=O)c2ccc(Nc3nc(OCC(F)(F)F)nc(N4CCN(S(=O)(=O)C5CC5)CC4)n3)cc2)CC1 [Example 8025] | 5.30 to 6.00
7 | CC(C)S(=O)(=O)N1CCN(c2nc(Nc3ccc(C(=O)NS(=O)(=O)C4(CN(C)C)CC4)cc3)nc(OCC(F)(F)F)n2)CC1 [Example 8026] | 5.30 to 6.00
8 | Cc1ccc(C(=O)N2CCN(c3nc(Nc4ccc(C(=O)NS(=O)(=O)C5(CN(C)C)CC5)cc4)nc(OCC(F)(F)F)n3)CC2)cc1 [Example 8027] | 5.30 to 6.00
9 | CN(C)CC1(S(=O)(=O)NC(=O)c2ccc(Nc3nc(OCC(F)(F)F)nc(N4CCN(C(=O)OC(C)(C)C)CC4)n3)cc2)CC1 [Example 8028] | 5.30 to 6.00
10 | CN(C)CC1(S(=O)(=O)NC(=O)c2ccc(Nc3nc(OCC(F)(F)F)nc(N4CCN(C(=O)c5ccccc5F)CC4)n3)cc2)CC1 [Example 8029] | 5.30 to 6.00
11 | CN(C)CC1(S(=O)(=O)NC(=O)c2ccc(Nc3nc(OCC(F)(F)F)nc(N4CCN(S(=O)(=O)c5ccccc5F)CC4)n3)cc2)CC1 [Example 8030] | 5.30 to 6.00
12 | CN(C)CC1(S(=O)(=O)NC(=O)c2ccc(Nc3nc(OCC(F)(F)F)nc(N4CCN(S(=O)(=O)c5ccccc5)CC4)n3)cc2)CC1 [Example 8031] | 5.30 to 6.00
13 | Cc1cccc(S(=O)(=O)N2CCN(c3nc(Nc4ccc(C(=O)NS(=O)(=O)C5(CN(C)C)CC5)cc4)nc(OCC(F)(F)F)n3)CC2)c1 [Example 8032] | 5.30 to 6.00
14 | CN(C)CC1(S(=O)(=O)NC(=O)c2ccc(Nc3nc(OCC(F)(F)F)nc(N4CCN(S(=O)(=O)c5ccccc5Cl)CC4)n3)cc2)CC1 [Example 8033] | 5.30 to 6.00
15 | Cc1ccccc1S(=O)(=O)N1CCN(c2nc(Nc3ccc(C(=O)NS(=O)(=O)C4(CN(C)C)CC4)cc3)nc(OCC(F)(F)F)n2)CC1 [Example 8034] | 5.30 to 6.00
16 | COc1ccc(S(=O)(=O)N2CCN(c3nc(Nc4ccc(C(=O)NS(=O)(=O)C5(CN(C)C)CC5)cc4)nc(OCC(F)(F)F)n3)CC2)cc1 [Example 8035] | 5.30 to 6.00
17 | CN(C)CC1(S(=O)(=O)NC(=O)c2ccc(Nc3nc(OCC(F)(F)F)nc(N4CCN(S(=O)(=O)c5cccc(F)c5)CC4)n3)cc2)CC1 [Example 8036] | 5.30 to 6.00
18 | Cc1cccc(C(=O)N2CCN(c3nc(Nc4ccc(C(=O)NS(=O)(=O)C5(CN(C)C)CC5)cc4)nc(OCC(F)(F)F)n3)CC2)c1 [Example 8038] | 5.30 to 6.00
19 | Cc1ccccc1C(=O)N1CCN(c2nc(Nc3ccc(C(=O)NS(=O)(=O)C4(CN(C)C)CC4)cc3)nc(OCC(F)(F)F)n2)CC1 [Example 8040] | 5.30 to 6.00
20 | COc1ccc(C(=O)N2CCN(c3nc(Nc4ccc(C(=O)NS(=O)(=O)C5(CN(C)C)CC5)cc4)nc(OCC(F)(F)F)n3)CC2)cc1 [Example 8041] | 5.30 to 6.00
21 | CC(C)(C)OC(=O)NCCS(=O)(=O)NC(=O)c1ccc(Nc2nc(NC3(c4ccc(Cl)cn4)CC3)nc(OCC(F)(F)F)n2)cc1 [Example 8042] | 7.00 to 9.30
